Test results published in US6495570B2, “Combination drug therapy for glycolipid storage diseases” (G. D. Searle & Co., priority 1999, dated 2002).
Several values for one entry are separate records, joined by “and”; a condition that tells them apart may be missing. Equal values may be shown once.

How the values were obtained:
glycolipid biosynthesis = details: cited from earlier work
[1] = test system: glycolipid biosynthesis in human myeloid (HL-60) cells; assay: Inhibition of glycolipid biosynthesis in HL-60 cells (radiolabelled palmitic acid, TLC, scanning densitometry); type: cell-based; details: for IC50: Homo sapiens, range quoted for variability of the radiolabelled products, read-out: IC50, inhibition of glycolipids (glucosylceramide and lactosylceramide bands)
Procedure: (§1) Cells were cultured for four days in the presence of radiolabelled palmitic acid and the following concentrations of compound:
(§2) After extraction the radioactively labelled glycolipids were separated by TLC and visualized by radioautography. NB-DNJ is N-butyl-DNJ. NN-DNJ is N-nonyl-DNJ.
(§3) Chinese Hamster Ovary (CHO) cells and human myeloid (HL-60) cells grown in the presence of varying concentrations of inhibitor in addition to a precursor (radiolabelled palmitic acid) of glycolipid biosynthesis were treated with solvents to extract the glycolipids by the procedure described by Platt et al., J. Biol. Chem. 269, 8362-8365 (1994).
(§4) The radiolabelled lipids were separated by TLC (FIG. 1) and bands corresponding to glucosylceramide and lactosylceramide were quantitated by scanning densitometry to estimate the reduction in glycolipid biosynthesis.
(§5) Table 1. […] Radiolabelled glucosylceramide and lactosylceramide bands from FIG. 1 were quantitated by scanning densitometry and the percentage of control (no treatment, track a, FIG. 1) expressed in comparison to compound dose. From the linear curve, an IC50 value was obtained. A range of values is quoted to represent variability of the radiolabelled products.

[2] = test system: glycolipid biosynthesis in Chinese hamster ovary (CHO) cells; assay: Inhibition of glycolipid biosynthesis in CHO cells (radiolabelled palmitic acid, TLC, scanning densitometry); type: cell-based; details: for IC50: Cricetulus griseus, range quoted for variability of the radiolabelled products, read-out: IC50, inhibition of glycolipids (glucosylceramide and lactosylceramide bands)
Procedure: as §1, §2, §3, §4, §5

[3] = Organ distribution of radiolabelled compound after oral gavage in the normal mouse; type: in vivo
Procedure: Mouse body fluids and organs were collected for different times (30, 60, 90 minutes) after gavage with radiolabelled compound. Radioactivity in each sample was determined and expressed as a percentage of radioactivity recovered. Solid bars, NN-DNJ, hatched bars, NB-DNJ.
Further evidence that longer alkyl chains are taken up-much better than the shorter alkyl chains has been obtained by in vivo studies with mouse.
Table 2. Recovery of radiolabelled compounds after administration in the normal mouse. Mouse body fluids and organs were collected at different times after gavage with radiolabelled compound. Radioactivity in each sample was determined and expressed as a percentage of radioactivity recovered (data from FIG. 5).

[4] = cited from earlier work
[5] = mice, oral 4800 mg/Kg/day; cited from earlier work
[6] = test system: human immunodeficiency virus (HIV); details: cited from earlier work
[7] = test system: CHO, MDBK and HepG2 cells; assay: Uptake of radiolabelled compound into cultured cells (cell-associated radioactivity); type: in vitro ADME; details: incubated up to 24 hours
Procedure: FIG. 5 is a bar graph of estimated radioactivity. […] Cells were extensively washed and acid precipitated. After solution in NaOH, cell associated radioactivity was determined as a percentage of radiolabelled compound added.
The activity is explained by the differential uptake into cells.

Hepatitis B virus (HBV) = details: based on inhibition of alpha-glucosidases in the ER; cited from earlier work

SMILES | dose required for activity against glycolipid biosynthesis (glycolipid biosynthesis) [mg/mL] | IC50 [2] [µM] | IC50 ([1]; HL-60 cells) [µM] | % recovered, Brain ([3]; 30 min after gavage, mouse) [%] | % recovered, Liver ([3]; 30 min after gavage, mouse) [%] | % recovered, Brain ([3]; 60 min after gavage, mouse) [%] | % recovered, Liver ([3]; 60 min after gavage, mouse) [%] | % recovered, Brain ([3]; 90 min after gavage, mouse) [%] | % recovered, Liver ([3]; 90 min after gavage, mouse) [%] | also measured
CN1C[C@H](O)[C@@H](O)[C@H](O)[C@H]1CO [N-methyl analog] | – | – | – | – | – | – | – | – | – | activity against glycolipid biosynthesis (glycolipid biosynthesis): inactive
CCCCCCCCCCN1C[C@H](O)[C@@H](O)[C@H](O)[C@H]1CO [N-decyl-DNJ] | – | – | – | – | – | – | – | – | – | inhibition at times lower concentrations than N-butyl-DNJ ([1]; HL-60 cell-based assay): 50 times
CCCCCCN1C[C@H](O)[C@@H](O)[C@H](O)[C@H]1CO [N-hexyl derivative of DNJ] | 0.2 | – | – | – | – | – | – | – | – | –
CCCCN1C[C@H](O)[C@@H](O)[C@H](O)[C@H]1CO [N-butyl-DNJ, N-butyl-1,5-dideoxy-1,5-imino-D-glucitol] | 0.01 to 0.1 | 25 to 50 | 1.8 to 7.3 | 0.2 | 8.5 | 0.1 | 2.8 | 0.03 | 0.9 | time of treatment to steady-state plasma concentration ([4]; clinical trial): 4-6 weeks; peak plasma concentration ([4]; oral, 100 mg three times daily, listed as ND-DNJ): 6.8 μM and 1.5 μg/ml; stable serum concentration [5]: 50 µM; effectiveness as an inhibitor of HIV versus the N-ethyl analog [6]: three log orders more effective; effectiveness as an inhibitor of HIV versus the N-methyl analog [6]: more than two log orders more effective
CCCCCCCCCN1C[C@H](O)[C@@H](O)[C@H](O)[C@H]1CO [N-nonyl-DNJ, N-nonyl-1,5-dideoxy-1,5-imino-D-glucitol] | – | 2 to 2.7 | 0.02 to 0.4 | 0.4 | 27.1 | 0.3 | 12.6 | 0.4 | 13.5 | inhibition of glycolipid biosynthesis, better than N-butyl-DNJ at equivalent concentrations [2]: about ten- to about twenty-fold better; inhibition of glycolipid biosynthesis, better than N-butyl-DNJ at equivalent concentrations ([1]; HL-60 cells): about four hundred times better; cell-associated radioactivity, increase versus N-butyl-DNJ [7]: 3.5-5.0 fold; radioactivity recovered in the liver and brain, higher than N-butyl-DNJ ([3]; after 90 min, oral gavage, mouse): 10 fold; uptake into the brain versus N-butyl-DNJ ([3]; tests of organ distribution): five times better; inhibition of the Hepatitis B virus (HBV) (Hepatitis B virus (HBV)): effective
